Experimental data reported in ChEMBL document CHEMBL2407027, “(3R,4S,5R,6R,7S)-3,4,5,7-Tetrahydroxyconidine, an azetidine analogue of 6,7-diepicastanospermine and a conformationally constrained d-deoxyaltronojirimycin, from l-arabinose” (Bioorg Med Chem, 2013).

Key:
[1] = Inhibition of Aspergillus niger amyloglucosidase
[2] = target: T1, Glucosylceramidase (Bos taurus) (UniProt Q2KHZ8); test: Inhibition of bovine liver beta-glucosidase at 1000 uM
T1 sequence (whole entry): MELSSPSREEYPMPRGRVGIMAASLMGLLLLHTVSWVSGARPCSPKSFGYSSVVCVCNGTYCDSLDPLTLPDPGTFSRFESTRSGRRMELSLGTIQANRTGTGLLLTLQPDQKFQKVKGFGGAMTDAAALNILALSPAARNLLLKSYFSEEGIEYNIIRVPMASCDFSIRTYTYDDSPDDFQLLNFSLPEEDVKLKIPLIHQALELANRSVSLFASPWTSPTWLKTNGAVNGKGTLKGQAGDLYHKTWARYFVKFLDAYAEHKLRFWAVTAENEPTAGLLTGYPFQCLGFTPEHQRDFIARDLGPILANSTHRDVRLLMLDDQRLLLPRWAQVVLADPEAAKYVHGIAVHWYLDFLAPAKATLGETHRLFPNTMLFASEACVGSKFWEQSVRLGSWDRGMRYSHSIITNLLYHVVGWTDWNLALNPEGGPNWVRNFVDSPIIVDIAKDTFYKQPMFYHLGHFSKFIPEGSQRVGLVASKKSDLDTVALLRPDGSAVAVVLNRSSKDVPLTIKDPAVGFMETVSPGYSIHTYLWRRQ

[3] = Inhibition of rat beta-galactosidase
Aspergillus niger [4] = test: Inhibition of Aspergillus niger amyloglucosidase at 1000 uM
[5] = target: T2, Alpha-glucosidase (Aspergillus niger) (UniProt P56526); test: Inhibition of Aspergillus niger alpha-glucosidase at 1000 uM
T2 sequence (whole entry): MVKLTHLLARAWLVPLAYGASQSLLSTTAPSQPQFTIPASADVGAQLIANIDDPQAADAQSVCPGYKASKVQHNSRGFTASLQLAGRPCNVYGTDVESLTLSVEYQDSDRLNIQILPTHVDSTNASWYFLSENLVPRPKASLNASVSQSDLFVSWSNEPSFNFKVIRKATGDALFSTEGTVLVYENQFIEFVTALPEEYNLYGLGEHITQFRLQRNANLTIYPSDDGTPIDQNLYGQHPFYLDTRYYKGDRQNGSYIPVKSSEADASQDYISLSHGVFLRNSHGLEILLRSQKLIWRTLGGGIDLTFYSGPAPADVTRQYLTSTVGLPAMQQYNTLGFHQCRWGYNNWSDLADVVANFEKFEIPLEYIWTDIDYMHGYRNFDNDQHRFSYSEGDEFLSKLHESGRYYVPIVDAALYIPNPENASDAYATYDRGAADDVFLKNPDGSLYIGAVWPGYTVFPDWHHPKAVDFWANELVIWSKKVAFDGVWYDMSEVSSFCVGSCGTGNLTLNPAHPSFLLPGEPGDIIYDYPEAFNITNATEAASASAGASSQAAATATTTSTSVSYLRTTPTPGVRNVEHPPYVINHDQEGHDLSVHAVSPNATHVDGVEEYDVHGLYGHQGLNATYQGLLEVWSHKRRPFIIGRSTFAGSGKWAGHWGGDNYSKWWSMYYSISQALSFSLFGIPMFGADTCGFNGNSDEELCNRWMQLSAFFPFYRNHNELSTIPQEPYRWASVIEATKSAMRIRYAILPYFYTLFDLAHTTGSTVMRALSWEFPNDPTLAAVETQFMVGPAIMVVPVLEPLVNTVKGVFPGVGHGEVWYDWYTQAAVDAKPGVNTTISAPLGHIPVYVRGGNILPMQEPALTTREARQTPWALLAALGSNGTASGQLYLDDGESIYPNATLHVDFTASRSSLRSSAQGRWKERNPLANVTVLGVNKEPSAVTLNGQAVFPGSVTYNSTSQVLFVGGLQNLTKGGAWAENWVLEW

Oryza sativa = test: Inhibition of rice alpha-glucosidase at 1000 uM
[6] = target: T3, Beta-galactosidase (Bos taurus) (UniProt Q58D55); test: Inhibition of bovine liver beta-galactosidase at 1000 uM
T3 sequence (whole entry): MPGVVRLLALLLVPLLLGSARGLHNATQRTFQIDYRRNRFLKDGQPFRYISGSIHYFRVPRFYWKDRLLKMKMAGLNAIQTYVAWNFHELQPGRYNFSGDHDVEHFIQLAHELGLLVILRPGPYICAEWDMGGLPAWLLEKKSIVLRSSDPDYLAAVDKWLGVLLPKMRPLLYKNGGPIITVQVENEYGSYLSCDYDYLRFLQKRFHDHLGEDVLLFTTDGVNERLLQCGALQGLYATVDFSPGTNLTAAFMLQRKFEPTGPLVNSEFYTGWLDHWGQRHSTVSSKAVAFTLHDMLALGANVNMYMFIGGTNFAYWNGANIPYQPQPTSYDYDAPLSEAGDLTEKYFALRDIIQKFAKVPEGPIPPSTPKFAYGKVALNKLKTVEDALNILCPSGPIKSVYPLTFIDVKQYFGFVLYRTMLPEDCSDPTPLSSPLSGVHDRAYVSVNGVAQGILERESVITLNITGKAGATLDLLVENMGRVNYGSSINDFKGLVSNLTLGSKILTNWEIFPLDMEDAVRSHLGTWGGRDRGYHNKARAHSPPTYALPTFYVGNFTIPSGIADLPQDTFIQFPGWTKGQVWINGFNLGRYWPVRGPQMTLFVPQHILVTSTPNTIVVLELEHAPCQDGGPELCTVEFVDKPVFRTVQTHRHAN

Rattus norvegicus [7] = organism: Rattus norvegicus; test: Inhibition of rat intestinal alpha-glucosidase at 1000 uM
[8] = target: T4, Beta-glucuronidase (Bos taurus) (UniProt A3KMY8); test: Inhibition of bovine liver beta-glucuronidase at 1000 uM
T4 sequence (whole entry): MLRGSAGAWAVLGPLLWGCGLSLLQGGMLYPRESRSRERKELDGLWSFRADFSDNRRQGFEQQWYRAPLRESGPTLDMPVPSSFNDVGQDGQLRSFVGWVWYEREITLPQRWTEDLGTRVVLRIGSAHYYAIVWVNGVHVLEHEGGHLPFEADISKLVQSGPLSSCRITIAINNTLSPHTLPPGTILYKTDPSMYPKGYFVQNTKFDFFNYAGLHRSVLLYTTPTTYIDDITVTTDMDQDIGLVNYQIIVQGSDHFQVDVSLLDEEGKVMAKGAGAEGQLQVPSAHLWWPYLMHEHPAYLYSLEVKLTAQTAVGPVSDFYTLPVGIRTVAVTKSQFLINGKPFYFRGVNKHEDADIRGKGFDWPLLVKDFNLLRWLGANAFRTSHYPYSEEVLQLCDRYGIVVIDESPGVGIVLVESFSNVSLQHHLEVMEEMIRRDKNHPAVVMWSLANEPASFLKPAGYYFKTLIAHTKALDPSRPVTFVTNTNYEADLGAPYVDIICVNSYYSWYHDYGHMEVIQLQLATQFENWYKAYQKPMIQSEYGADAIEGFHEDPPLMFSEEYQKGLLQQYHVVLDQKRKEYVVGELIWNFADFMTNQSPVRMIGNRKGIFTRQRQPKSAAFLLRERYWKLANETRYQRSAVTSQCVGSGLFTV

Saccharomyces cerevisiae = test: Inhibition of yeast alpha-glucosidase at 1000 uM
[9] = Inhibition of rhizopus amyloglucosidase
Aspergillus niger [10] = test: Inhibition of Aspergillus niger beta-glucosidase at 1000 uM
Penicillium decumbens = test: Inhibition of Penicillium decumbens alpha-L-rhamnosidase at 1000 uM
Coffea = test: Inhibition of coffee beans alpha-galactosidase at 1000 uM
Escherichia coli = test: Inhibition of Escherichia coli beta-glucuronidase at 1000 uM
Helix pomatia = test: Inhibition of snail beta-mannosidase at 1000 uM
Sus scrofa = organism: Sus scrofa; test: Inhibition of porcine kidney alpha,alpha-trehalase at 1000 uM
Prunus dulcis = test: Inhibition of almond beta-glucosidase at 1000 uM
[11] = target: T5, Tissue alpha-L-fucosidase (Bos taurus) (UniProt Q2KIM0); test: Inhibition of bovine alpha-L-fucosidase at 1000 uM
T5 sequence (whole entry): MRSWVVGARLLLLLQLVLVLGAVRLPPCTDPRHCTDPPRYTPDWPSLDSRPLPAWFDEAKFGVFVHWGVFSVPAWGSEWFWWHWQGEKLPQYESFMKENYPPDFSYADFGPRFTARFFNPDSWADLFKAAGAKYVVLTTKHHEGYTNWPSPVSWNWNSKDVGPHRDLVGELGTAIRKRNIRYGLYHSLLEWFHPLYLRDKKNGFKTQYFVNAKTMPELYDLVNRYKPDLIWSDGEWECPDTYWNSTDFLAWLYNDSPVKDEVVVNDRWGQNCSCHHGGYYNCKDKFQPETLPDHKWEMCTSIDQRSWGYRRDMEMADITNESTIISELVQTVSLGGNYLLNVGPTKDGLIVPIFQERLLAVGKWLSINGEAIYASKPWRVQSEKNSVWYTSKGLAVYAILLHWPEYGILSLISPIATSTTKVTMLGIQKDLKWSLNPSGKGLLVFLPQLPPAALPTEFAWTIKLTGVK

Alpha-glucosidase = target: T6, Alpha-glucosidase (Aspergillus niger, UniProt P56526); test: Inhibition of Aspergillus niger alpha-glucosidase
T6 sequence (P56526 whole entry): T2 sequence (whole entry)

[12] = Inhibition of Penicillium decumbens alpha-L-rhamnosidase
[13] = Inhibition of almond beta-glucosidase; set-up: species or system Prunus dulcis
[14] = Inhibition of rat intestinal alpha-glucosidase
Rhizopus = test: Inhibition of rhizopus amyloglucosidase at 1000 uM
Rattus norvegicus [15] = organism: Rattus norvegicus; test: Inhibition of rat intestinal beta-galactosidase at 1000 uM
[16] = target: T7, Tissue alpha-L-fucosidase (Bos taurus, UniProt Q2KIM0); test: Inhibition of bovine alpha-L-fucosidase
T7 sequence (Q2KIM0 whole entry): T5 sequence (whole entry)

inhibition (Aspergillus niger [4]) [%] | inhibition [5] [%] | inhibition (Oryza sativa) [%] | inhibition [6] [%] | inhibition [8] [%] | inhibition (Saccharomyces cerevisiae) [%] | inhibition (Aspergillus niger [10]) [%] | inhibition (Penicillium decumbens) [%] | inhibition (Coffea) [%] | inhibition (Escherichia coli) [%] | inhibition (Helix pomatia) [%] | inhibition (Sus scrofa) [%] | inhibition (Rattus norvegicus [15]) [%] | SMILES | IC50 [1] [µM] | inhibition [2] [%] | inhibition (Rattus norvegicus [7]) [%] | IC50 [9] [µM] | inhibition (Prunus dulcis) [%] | inhibition [11] [%] | further results
 |  |  |  |  |  |  |  |  |  |  |  |  | O[C@H]1[C@H](O)CN2CCCC[C@H]12 [(-)-LENTIGINOSINE] | 32 |  |  |  |  |  | 
 |  |  |  |  |  |  |  |  |  |  |  |  | O[C@H]1[C@H](O)[C@@H](O)CN2CC[C@H](O)[C@H]12 [CASTANOSPERMINE] | 8 |  |  |  |  |  | 
 |  | 12.1 | 25.2 | 7.4 | 16 | 0.4 |  | 7.6 | 0 | 0 | 5.8 |  | OC[C@H](O)[C@@H]1NC[C@@H]1O | 105 |  |  | 19 |  | 4.6 | IC50 [3]: 70 µM; IC50 (Alpha-glucosidase): 39 µM; IC50 [12]: 634 µM; IC50 [13]: 347 µM; IC50 [14]: 607 µM
3 | 0 | 2.7 | 13.4 | 4.2 | 3.1 | 1.2 | 11.1 | 0 | 8.9 | 0 | 5.2 | 0 | O=C1CC[C@H](O)[C@H]2[C@@H](O)CN12 |  | 14.9 | 25.2 |  | 0 | 0 | inhibition (Rhizopus): 3.8%
5 | 19.1 | 7.2 | 19.9 | 7.4 | 1.4 | 1.8 | 2.1 | 20.5 | 0 | 0 | 2.1 | 44.6 | OC[C@H]1NC[C@@H](O)[C@H](O)[C@@H]1O |  | 10.9 | 24.2 |  | 18.8 |  | inhibition (Rhizopus): 7%; IC50 [16]: 194 µM
 |  |  |  |  |  |  |  |  |  |  |  |  | O[C@@H]1[C@H](O)[C@H]2[C@@H](O)CCN2C[C@H]1O | 8 |  |  |  |  |  | 

SMILES | inhibition (Aspergillus niger [4]) [%] | inhibition [5] [%] | inhibition (Oryza sativa) [%] | inhibition [6] [%] | inhibition [8] [%] | inhibition (Saccharomyces cerevisiae) [%] | inhibition (Aspergillus niger [10]) [%] | inhibition (Penicillium decumbens) [%] | inhibition (Coffea) [%] | inhibition (Escherichia coli) [%] | inhibition (Helix pomatia) [%] | inhibition (Sus scrofa) [%] | inhibition (Rattus norvegicus [15]) [%] | IC50 [1] [µM] | inhibition [2] [%] | inhibition (Rattus norvegicus [7]) [%] | IC50 [9] [µM] | inhibition (Prunus dulcis) [%] | inhibition [11] [%] | further results
O[C@@H]1[C@H](O)[C@H]2[C@@H](O)CN2C[C@H]1O [(3R,4S,5R,6R,7S)-3,4,5,7-TETRAHYDROXYCONIDINE] | 31.3 | 47.3 | 13.8 | 43.4 | 7.8 | 0 | 1.8 | 2 | 3.5 | 0 | 0 | 9 |  |  | 18.9 | 30.3 | 532 | 31.1 | 2 | IC50 [3]: 418 µM
O[C@H]1CCCN2C[C@H](O)[C@H]12 |  |  | 0 | 14 | 0 | 1.6 | 0 |  | 8.4 | 13.2 | 0 | 1 | 32.2 | 930 | 9.7 | 14.3 | 243 | 0 | 0 | IC50 (Alpha-glucosidase): 307 µM; IC50 [12]: 117 µM
